The values that follow come from patent US20100075935A1, “XANTHINE MODULATORS OF ADENOSINE A1 RECEPTOR” (Auspex Pharmaceuticals, Inc., priority 2008, published 2010).

Data set [1] can be described thus: In vitro liver microsomal stability assay. It is filed as in vitro ADME. The conditions noted are these: human liver microsomes 0.5 mg/mL, 1 μM compound, 37° C., NADPH-generating system, compared with non isotopically enriched rolofylline, '+' marks one bin of −25%-0%, 0%-50%, 50%-150%. Here is the method:
Liver microsomal stability assays were conducted at 0.5 mg per mL liver microsome protein with an NADPH-generating system in 2% NaHCO3 (2.2 mM NADPH, 25.6 mM glucose 6-phosphate, 6 units per mL glucose 6-phosphate dehydrogenase and 3.3 mM MgCl2). Test compounds were prepared as solutions in 20% acetonitrile-water and added to the assay mixture (final assay concentration 1 μM) and incubated at 37° C. Final concentration of acetonitrile in the assay should be <1%. […] were taken out at times 0, 7.5, 15, 22.5, 30 minutes, and diluted with ice cold acetonitrile (200 μL) to stop the reactions. Samples were centrifuged at 12,000 RPM for 10 min to precipitate proteins. Supernatants were transferred to micro centrifuge tubes and stored for LC/MS/MS analysis of the degradation half-life of the test compounds. […] The degradation half-lives of Examples 1 through 4 (isotopically enriched compounds) as compared with non isotopically enriched rolofylline are shown in Table 1.
Background: Liver microsomes are vesicles of endoplasmic reticulum, rich in cytochrome P450 enzymes.

Data set [2] concerns acute heart failure patients. The conditions noted are these: cited from earlier work.
[3] abbreviates: rolofylline 30 mg daily for 3 days.

As for `[2H]C([2H])([2H])C([2H])([2H])C([2H])([2H])n1c(=O)c2[nH]c(C34CC5CC(CC3C5)C4)nc2n(CCC)c1=O` [Example 4, 8-(Noradamantyl)-1-(d7-propyl)-3-propyl-3,7-dihydro-purine-2,6-dione], the “% increase of HLM degradation half-life” value in data set [1] is given as “+ (−25%-0%)”.

On to `[2H]C([2H])([2H])C([2H])([2H])C([2H])([2H])n1c(=O)c2[nH]c(C34CC5CC(CC3C5)C4)nc2n(C([2H])([2H])C([2H])([2H])C([2H])([2H])[2H])c1=O` [Example 2, 8-(Noradamantyl)-1-(d7-propyl)-3-(d7-propyl)-3,7-dihydro-purine-2,6-dione], for which the “% increase of HLM degradation half-life” value in data set [1] is given as “+ (−25%-0%)”.

With `[2H]C([2H])([2H])C([2H])([2H])C([2H])([2H])n1c(=O)n(CCC)c(=O)c2[nH]c(C34CC5CC(CC3C5)C4)nc21` [Example 1, 8-(Noradamantyl)-1-propyl-3-(d7-propyl)-3,7-dihydro-purine-2,6-dione], in data set [1], the “% increase of HLM degradation half-life” value is “+ (−25%-0%)”.

Consider `[2H]C([2H])(CC)n1c(=O)c2[nH]c(C34CC5CC(CC3C5)C4)nc2n(CCC)c1=O` [Example 3, 8-(Noradamantyl)-1-(1,1-d2-propyl)-3-propyl-3,7-dihydro-purine-2,6-dione], for which, in data set [1], the “% increase of HLM degradation half-life” value is listed as “+ (−25%-0%)”.

As to `CCCn1c(=O)c2[nH]c(C34CC5CC(CC3C5)C4)nc2n(CCC)c1=O` [Rolofylline, 8-(hexahydro-2,5-methano-pentalen-3a-yl)-1,3-dipropyl-3,7-dihydro-purine-2,6-dione], in data set [2] (acute heart failure patients, 6 hours), the “urine output at 6 hours” value is reported as “increased urine output at 6 hours”. The “overall urine output over 24 hours” value in data set [2] (acute heart failure patients, 24 hours) was “did not increase overall urine output over 24 hours”. The “patients with persistent renal impairment” value in data set [2] (rolofylline 30 mg daily for 3 days, acute heart failure patients) is given as 8%. In data set [2] (setting [3]), the “dyspnea improvement versus placebo” value was “superior to placebo” and the “instances of death, heart failure readmission, worsening heart failure or persistent renal impairment versus placebo” value is “less instances”.
